From paper PMC5838563, “Compounds producing an effective combinatorial regimen for disruption of HIV‐1 latency” (EMBO Molecular Medicine, 2017)

Legend:
CD69 expression on PBMCs = assay: CD69 expression by flow cytometry on PBMCs from healthy donors; type: cell-based, human
Source text: As discussed earlier, an ideal combination of latency‐reversing compounds would reverse HIV‐1 latency in a broad spectrum of infected cells, without causing global T‐cell activation. Accordingly, we examined the effects of PH02 and PEP005 on T‐cell activation and toxicity on primary cells (PBMCs) isolated from healthy donors. […] Consequently, we examined the effect of lower concentrations of PEP005, alone and in combination with PH02 on these primary cells. […] Based on these observations, we expected that 1 nM PEP005 in combination with PH02 should produce negligible toxicity, and have minimal effects on T‐cell activation, while being capable of causing significant reversal of HIV latency (Fig 4F, Appendix Fig S2B).
Figure 9 Effect of PH02 in combination with PEP005 on T‐cell activation Expression of CD69 on PBMCs from three healthy donors (A, B, C; n = 3) was measured by flow cytometry following 24‐h treatment with 3 μM of PH02 alone or in combination with the indicated concentration of PEP005. Positive control samples were treated with PMA. Statistical significance, as determined by one‐way ANOVA, is indicated: *P < 0.05; **P < 0.005; ***P < 0.0005; ****P < 0.00005; ns, no significant difference. The exact P‐values are indicated in Appendix Table S1.
Luciferase assays were performed in 96‐well plate format, where 100 μl of cell culture containing 1 × 10^5 luciferase reporter cells was plated per well. After the indicated time of treatment, 100 μl of luciferase assay reagent (SuperlightTM luciferase reporter Gene Assay Kit; BioAssay Systems) was added per well, and incubated for 2 min at RT, when luciferase activity was measured on a VictorTM X3 Multilabel Plate Reader. Results were presented relative to the positive control samples treated with 50 nM PMA. T‐cell activation was measured using 1 × 10^5 wild‐type Jurkat^Tat cells or PBMCs purified from healthy donors, treated as indicated. After 24 h, cells were incubated with 2.4G2 antibody to block nonspecific binding and further stained with 5 μl of anti‐human CD69 or an IgG1 isotype control antibody conjugated with PE‐Cy^Tm7. After 30‐min incubation on ice, the cells were washed twice with PBS and analyzed using a Becton Dickinson LSRII flow cytometer (BD Biosciences) to determine mean fluorescence intensity (MFI), using FlowJo software. The mean fluorescence intensity (MFI) obtained from cells stained with IgG isotype antibody control was subtracted from that from cells stained with CD69 to compensate for background (MFICD69‐MFIIgG). IL‐2 production was measured in cell culture supernatants using a human IL‐2 ELISA System (eBioscience). […]

[1] = tested on: latent HIV‐1 provirus in CD4^+ T cells from aviremic HIV‐infected patients; assay: Intracellular HIV‐1 mRNA in CD4+ T cells of aviremic patients; type: cell-based
Experimental: However, 1 nM PEP005 in combination with 1 μM PH02 produced a significant response that was double that produced by 1 μM PH02 on its own (Fig 10A). We confirmed this effect using a quantitative viral outgrowth assay (qVOA) with pools of CD4^+ T cells isolated from HIV‐1‐infected patient samples (Fig EV5, Appendix Table S5). […] We conclude that this combination of treatments may represent a promising candidate therapy to target persistent latent viral infection.
Figure 10 Effect of PH02 and PEP005 on expression of HIV provirus in latently infected cells from patients • Expression of intracellular HIV‐1 mRNA was determined from pools of CD4^+ T cells from aviremic HIV‐infected patients (n = 3, Appendix Table S4) following 24‐h treatment as indicated. Results are shown as fold induction relative to untreated controls. • Quantitative viral outgrowth assays (qVOA) were used to measure reactivation of HIV‐1 provirus from latency in pools of cells from patients. […] Data information: Statistical significance was determined by one‐way ANOVA and indicated as: *P < 0.05; **P < 0.005; ***P < 0.0005; ****P < 0.00005. […]
HIV‐1 RNA was measured from 1 × 10^6 resting CD4^+ T lymphocytes treated with 30 μM of each compound. […] RNA copy number was calculated using a standard curve generated from titrated infections with RGH‐PGK virus (Dahabieh et al, 2013). […]

[2] = 3 μM PH02 or 1 nM PEP005 alone, 24 h

Compound	CD69 induction (CD69 expression on PBMCs; [2])	PEP005 concentration causing CD69 expression at levels similar to PMA (CD69 expression on PBMCs; alone and in combination with 3 μM PH02, 24 h)	induction of viral RNA ([1]; 1 nM PEP005 alone, 24 h)	CD69 induction (CD69 expression on PBMCs; 3 μM PH02 + 1 nM PEP005, 24 h)	response of combination relative to 1 μM PH02 on its own ([1]; 1 μM PH02 + 1 nM PEP005, 24 h)
C/C=C(/C)C(=O)O[C@H]1C(C)=C[C@]23C(=O)[C@@H](C=C(CO)[C@@H](O)[C@]12O)[C@H]1[C@@H](C[C@H]3C)C1(C)C [PEP005, ingenol‐3‐angelate, reference compound]	did not cause significant CD69 induction	higher than 1 nM	did not cause induction of viral RNA	–	–
CC(=O)Oc1ccccc1N(C=C1Sc2ccccc2C1=O)C(C)=O [PH02, 2‐{acetyl[(3‐oxo‐1‐benzothien‐2(3H)‐ylidene)methyl]amino}phenyl acetate]	did not cause significant CD69 induction	–	–	did not cause significant CD69 induction	double
